Experiments:
Assay type in all cases: toxicity, cell-based
[1] = test system: U2OS; test: Incucyte cell viability with U2OS; conditions: human, 10 µM, compound concentration 10 uM
[2] = test system: HEK-293T; test: Incucyte cell viability with HEK293T; conditions: human, 10 µM, compound concentration 10 uM
[3] = test system: Fibroblast; test: Incucyte cell viability with human fibroblast; conditions: 10 µM, compound concentration 10 uM
Further: unitless GR value; below 1 slowed growth and below 0 cell loss.

| Compound | Growth Rate ([1]; 6 h, replicate number 1) | Growth Rate ([1]; 6 h, replicate number 2) | Growth Rate ([1]; 12 h, replicate number 1) | Growth Rate ([1]; 12 h, replicate number 2) | Growth Rate ([1]; 18 h, replicate number 1) | Growth Rate ([1]; 18 h, replicate number 2) | Growth Rate ([1]; 24 h, replicate number 1) | Growth Rate ([1]; 24 h, replicate number 2) | Growth Rate ([2]; 6 h, replicate number 1) | Growth Rate ([2]; 12 h, replicate number 1) | Growth Rate ([2]; 12 h, replicate number 2) | Growth Rate ([2]; 18 h, replicate number 1) | Growth Rate ([2]; 18 h, replicate number 2) | Growth Rate ([2]; 24 h, replicate number 1) | Growth Rate ([2]; 24 h, replicate number 2) | Growth Rate ([3]; 6 h, replicate number 2) | Growth Rate ([3]; 12 h, replicate number 2) | Growth Rate ([3]; 18 h, replicate number 1) | Growth Rate ([3]; 18 h, replicate number 2) | Growth Rate ([3]; 24 h, replicate number 2) | also measured |
| --- | --- | --- | --- | --- | --- | --- | --- | --- | --- | --- | --- | --- | --- | --- | --- | --- | --- | --- | --- | --- | --- |
| COC[C@@H](C)N[C@H]1CC[C@H](Nc2cc(-c3cccc(NCC4(C#N)CCOCC4)n3)c(Cl)cn2)CC1 | 0.79 | 0.56 | 0.88 | 0.62 | 0.59 | 0.71 | 0.79 | 0.68 | -0.07 | 0.2 | 0.18 | 0.22 | 0.24 | 0.27 | 0.35 | -0.13 | -0.06 | -0.12 | -0.22 | -0.12 | Growth Rate ([1]; 0 h, replicate number 2): 0.56; Growth Rate ([3]; 0 h, replicate number 2): -1; Growth Rate ([3]; 6 h, replicate number 1): 0.06; Growth Rate ([3]; 12 h, replicate number 1): -0.08; Growth Rate ([3]; 24 h, replicate number 1): -0.09 |
| O=C(Cc1ccccc1)Nc1nnc(N2CC[C@@H]3[C@H]2CN3c2cccnn2)s1 [A-426] | 0.79 | – | 0.69 | – | 0.77 | – | 0.84 | – | 0.31 | 0.39 | – | 0.67 | – | 0.85 | – | 0.16 | 0.86 | 0.8 | 0.69 | – | Growth Rate ([1]; 0 h, replicate number 1): -0.69; Growth Rate ([3]; 6 h, replicate number 1): 0.66; Growth Rate ([3]; 12 h, replicate number 1): 0.76; Growth Rate ([3]; 24 h, replicate number 1): 0.73 |
| COCCN(C)c1ccc(NC(=O)/C=C(\C)c2ccc3ccccc3c2)c(C(=O)O)c1 | 0.9 | – | 0.72 | 0.92 | 0.88 | – | 0.91 | – | – | – | – | – | – | – | – | – | – | – | – | – | Growth Rate ([1]; 0 h, replicate number 1): 0.79; Growth Rate ([2]; 0 h, replicate number 1): 0.87; Growth Rate ([2]; 0 h, replicate number 2): -0.37; Growth Rate ([3]; 0 h, replicate number 2): -0.29 |
| CN1CCN([C@H]2CC[C@@H](n3cc(-c4ccc(Oc5ccccc5)cc4)c4c(N)ncnc43)CC2)CC1 | -0.82 | -0.23 | -0.26 | 0.01 | -0.15 | 0.03 | -0.17 | -0.03 | -0.98 | -0.89 | -0.8 | -0.69 | -0.6 | -0.55 | -0.44 | -0.98 | -0.72 | – | -0.51 | -0.46 | Growth Rate ([1]; 0 h, replicate number 1): -1; Growth Rate ([3]; 6 h, replicate number 1): -1; Growth Rate ([3]; 24 h, replicate number 1): 0.42 |
| CN1C(=O)c2ccccc2N(C)c2nc(Nc3cnn(C4CCNCC4)c3)ncc21 | -0.35 | 0.15 | 0.07 | 0.18 | 0.07 | 0.23 | 0.15 | 0.24 | -0.59 | -0.25 | -0.41 | 0.19 | -0.15 | 0.37 | 0.07 | – | 0.94 | – | 0.43 | 0.43 | Growth Rate ([1]; 0 h, replicate number 2): 0.12; Growth Rate ([2]; 6 h, replicate number 2): -0.85; Growth Rate ([3]; 0 h, replicate number 1): -0.99; Growth Rate ([3]; 0 h, replicate number 2): -0.07 |
| Cn1c(=O)n(CCCO)c(=O)c2c1nc(Oc1cccc(Cl)c1)n2Cc1ccc(Cl)cc1 | 0.38 | – | – | 0.93 | 0.86 | 0.82 | 0.94 | 0.89 | – | – | 0.77 | – | 0.84 | – | 0.83 | -0.99 | 0.66 | 0.33 | – | 0.85 | Growth Rate ([2]; 0 h, replicate number 2): 0.3; Growth Rate ([2]; 6 h, replicate number 2): 0.26 |
| Cl.Cl.O=C1c2ccccc2C(Cc2ccncc2)(Cc2ccncc2)c2ccccc21 | – | 0.24 | – | 0.75 | – | 0.92 | – | 0.88 | 0.32 | 0.55 | 0.97 | 0.62 | 0.63 | 0.6 | 0.63 | – | – | 0.1 | – | 0.89 | Growth Rate ([1]; 0 h, replicate number 1): -0.47; Growth Rate ([1]; 0 h, replicate number 2): -0.7; Growth Rate ([2]; 6 h, replicate number 2): 0.89; Growth Rate ([3]; 12 h, replicate number 1): -1 |

Source: ChEMBL document CHEMBL5303304, “EUbOPEN Chemogenomics Library - IncuCyte” (2023)
